In brackets after ≈: the same amount, converted by molar mass.
What was measured:
Type in all cases: physicochemical
[1] = oxidation-reduction cycle durability test (cyclic voltammetry); details: dichloromethane; for change in oxidation peak current after 20,000 oxidation-reduction cycles (in words): 20,000 cycles; for Rate of Change in Oxidation Peak Current after Oxidation-Reduction Cycles for 20,000 Times: tetrabutylammonium perchlorate 0.1 mol/L, compound 1.0×10^−4 mol/L, initial current = 100%
Experimental: (§1) For the durability measurement, glassy carbon was used for a working electrode, platinum was used for a counter electrode, silver was used for a reference electrode, and a dichloromethane solution was used in which tetrabutylammonium perchlorate (0.1 mol/L) as a supporting electrolyte and each of the above compounds (1.0×10^−4 mol/L) were dissolved.
In this solution, a square-wave potential program including constant potential oxidation at +0.8 V (B-2 and B-1) or +1.2 V (XX-4) (vs. Ag/Ag^+), each of which was equal to or more than the oxidation potential of the corresponding compound, for 3 seconds and subsequent constant potential reduction at 0 V (vs. Ag/Ag^+) for 3 seconds was repeatedly performed 20,000 times.
The changes in oxidation peak current in cyclic voltammetry (CV) measurement before and after the oxidation-reduction cycles for 20,000 times are shown in Table.
In this table, the “rate of change in oxidation peak current” indicates a value obtained by adding the change in current from the initial current (represented by 100%) to the initial current.

[2] = ultraviolet-visible absorption spectrum in the neutral state, chloroform solution
Experimental: The exemplary compound B-2 thus obtained was dissolved in chloroform, and the absorption spectrum of this solution measured by using an ultraviolet-visible spectrophotometer (V-560 manufactured by JASCO Corporation) is shown in FIG. 2.

[3] = oxidation absorption spectrum / change in transmittance on constant potential oxidation; details: for shape and wavelength of the oxidation absorption peak with concentration (π-dimer formation): 5.0×10^−4 or 1.7×10^−4 mol/L; for transmittance after oxidation / light absorption peak in the oxidized state: constant potential oxidation at +0.9 V (vs. Ag/Ag+); for transmittance after oxidation: at the absorption peak
Experimental: as §1, with “the measurement of an oxidation absorption spectrum, platinum” for “the durability measurement, glassy carbon”, “(0.1 mol/l)” for “(0.1 mol/L)”, “compounds (5.0×10^−4 or 1.7×10^−4” for “compounds (1.0×10^−4”
In this solution, constant potential oxidation at +0.9 V (vs. Ag/Ag+), which was equal to or more than the oxidation potential of the compound, was performed, and the change in transmittance was measured.
The measurement of the oxidation absorption spectrum of the obtained compound D-11 was performed as in Example 4 using a dichloromethane solution in which tetrabutylammonium perchlorate (0.1 mol/L) and D-11 (5.0×10^−4 mol/L) were dissolved. […] This oxidation colored state was again returned to a colorless and transparent state by reduction, and the electrochromic characteristics in conformity with oxidation-reduction were confirmed. In addition, since the shape and the absorption wavelength of this oxidation absorption peak were not changed with the concentration, it was shown that as in Example 4, the formation of π-dimers was suppressed.

[4] = solubility in propylene carbonate solution of supporting electrolyte; details: propylene carbonate solution of LiCO4 (0.1 mol/L), organic solvent or mixture
Experimental: In addition, as one example of the element solvent, the solubility of the compound D-11 in a propylene carbonate solution of LiCO4 (supporting electrolyte, 0.1 mol/L) was confirmed. According to the result, it was confirmed that this compound was dissolved at a concentration of 9 mmol/L and that the solubility thereof was higher than the solubility (6 mmol/L) of the compound B-2 of Example 1. The reason for this is believed that since having an ester group-containing phenyl group at the 3-position of DTT, the compound D-11 has an improved solubility into propylene carbonate, which is a polar solvent.

SMILES	change in oxidation peak current after 20,000 oxidation-reduction cycles (in words) [1]	Rate of Change in Oxidation Peak Current after Oxidation-Reduction Cycles for 20,000 Times [1] [%]	absorption in the visible light region [2]	λ max at which the absorption peak showed the maximum intensity [2] [nm]	shape and wavelength of the oxidation absorption peak with concentration (π-dimer formation) [3]	transmittance after oxidation [3] [%]	light absorption peak in the oxidized state ([3]; dichloromethane)	transmittance in the bleached state before oxidation ([3]; over the entire visible light region, dichloromethane)	solubility [4] [mM]
CC(C)(C)c1cc2sc3cc(C(C)(C)C)sc3c2s1 [XX-4, reference compound]	decreased	81							
COc1cccc(OC)c1-c1sc2c(sc3c(-c4ccccc4)c(-c4c(OC)cccc4OC)sc32)c1-c1ccccc1 [B-1]	hardly observed	98	no absorption over the entire visible light region	309.5	not changed	20.3	approximately 510 nm	approximately 100%	
COc1cccc(OC(C)C)c1-c1sc2c(sc3c(-c4ccccc4)c(-c4c(OC)cccc4OC(C)C)sc32)c1-c1ccccc1 [B-2]	hardly observed	101	no absorption over the entire visible light region	307.5	not changed				6 (≈ 4060 µg/mL)
COC(=O)c1ccc(-c2c(-c3c(OC)cccc3OC(C)C)sc3c2sc2c(-c4ccc(C(=O)OC)cc4)c(-c4c(OC)cccc4OC(C)C)sc23)cc1 [D-11]			no absorption over the entire visible light region	316.0	not changed	36.3	541.5 nm		9 (≈ 7140 µg/mL)

From patent US8754241B2, “Organic compound and electrochromic element having the same” (Canon Kabushiki Kaisha, priority 2012, dated 2014)
